Results reported in patent publication US20230183237A1, “COMPETITIVE AND NONCOMPETITIVE INHIBITORS OF THE MUSCARINIC ACETYLCHOLINE RECEPTOR M5” (Vanderbilt University, priority 2020, published 2023).
Like-named read-outs stand apart in the source and are kept apart here.

Target: T1, hM5 (Homo sapiens, UniProt P08912)
T1 construct: expressed in transfected cells
T1 sequence (P08912 1-532): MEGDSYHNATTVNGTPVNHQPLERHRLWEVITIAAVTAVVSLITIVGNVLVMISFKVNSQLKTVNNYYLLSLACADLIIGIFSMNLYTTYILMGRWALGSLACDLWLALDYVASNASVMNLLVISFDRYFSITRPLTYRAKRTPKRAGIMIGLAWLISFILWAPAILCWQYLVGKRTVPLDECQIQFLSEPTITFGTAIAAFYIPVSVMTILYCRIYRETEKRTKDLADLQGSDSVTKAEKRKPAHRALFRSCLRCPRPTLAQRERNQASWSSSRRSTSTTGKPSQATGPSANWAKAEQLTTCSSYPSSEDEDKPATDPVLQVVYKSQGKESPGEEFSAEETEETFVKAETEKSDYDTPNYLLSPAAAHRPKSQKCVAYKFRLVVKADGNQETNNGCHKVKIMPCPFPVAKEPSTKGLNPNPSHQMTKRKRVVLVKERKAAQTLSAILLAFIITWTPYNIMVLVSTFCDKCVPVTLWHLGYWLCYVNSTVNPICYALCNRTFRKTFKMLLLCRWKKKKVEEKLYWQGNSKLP
Experiment: Calcium mobilization concentration-response (IC50 vs EC80 acetylcholine), CHO hM5
Type: cell-based
Settings: CELL LINE hM5, read-out: IC50
In short: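 IC50 values derive from percent maximal acetylcholine response after an EC80 ACh addition, measured as kinetic calcium fluorescence (static ratio, max−min). Test compounds were added 140 s before agonist. Cells: stable hM5-CHO in HEPES-buffered HBSS with 2.5 mM probenecid, pH 7.4; ≥3 independent triplicate determinations.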

[1] = calcium mobilization, EC80 acetylcholine addition

| IC50 [1] | IC50 (vs EC80 acetylcholine) | SMILES |
| --- | --- | --- |
| 0.206 µM |  | [2H]C1([2H])Oc2cc(C)c(C3CCN(S(=O)(=O)c4cnn(C)c4Cl)CC3)cc2OC1([2H])[2H] [Compound 390, 1-((5-chloro-1-methyl-1H-pyrdzol-4-yl)sulfonyl)-4-(7-methyl-2,3-dihydrobenzo[b][1,4]dioxin-6-yl-2,2,3,3-d4)piperidine] |
| > 10 µM |  | Cc1nc2cc(C)c(C3CCN(S(=O)(=O)c4cc5c(cc4F)OCC5)CC3)cn2n1 [Compound 77, 6-(1-((6-fluoro-2,3-dihydrobenzofuran-5-yl)sulfonyl)piperidin-4-yl)-2,7-dimethyl-[1,2,4]triazolo[1,5-a]pyridine] |
|  | 0.946 µM | O=S(=O)(c1cnn2c1OCCC2)N1CCC(F)(c2cn3ncnc3cc2F)CC1 [Compound 506, 3-((4-fluoro-4-(7-fluoro-[1,2,4]triazolo[1,5-a]pyridin-6-yl)piperidin-1-yl)sulfonyl)-6,7-dihydro-5H-pyrazolo[5,1-b][1,3]oxazine] |
| > 10 µM |  | Cc1c(S(=O)(=O)N2CCC(c3ccncc3)CC2)cnn1C [Compound 365, 4-(1-((1,5-dimethyl-1H-pyrazol-4-yl)sulfonyl)piperidin-4-yl)pyridine] |
| 0.103 µM |  | Cc1cc2ncnn2cc1[C@@H]1CCN(S(=O)(=O)c2cnn(C)c2Cl)C[C@H]1O (racemic) [Compound 282, (rac)-trans-1-((5-Chloro-1-methyl-1H-pyrazol-4-yl)sulfonyl-4-(7-methyl-[1,2,4]triazolo[1,5-a]pyridin-6-yl)piperidin-3-ol] |
| 4.62 µM |  | Cc1ccncc1C1CCN(S(=O)(=O)c2cnn3c2OCCC3)CC1 [Compound 386, 3-((4-(4-methylpyridin-3-yl)piperidin-1-yl)sulfonyl)-6,7-dihydro-5H7-pyrazolo[5,1-b][1,3]oxazine] |
